Several values for one entry are separate records, joined by “and”; a condition that tells them apart may be missing. Identical values can stand only once. Like-named read-outs stand apart in the source and are kept apart here.
Assays:
[1] = tested on: feline calicivirus F4 strain
[2] = tested on: poliovirus type I live vaccine strain
[3] = tested on: Herpes simplex virus type I VR-539; experiment: Inactivation of herpesviruses, plaque assay on Vero cells; assay type: cell-based
influenza viruses = details: pH 6.5 (FIG. 4)
[4] = tested on: influenza virus Type A Aichi strain A/Aichi/68 (H3N2); assay type: cell-based
[5] = tested on: feline calicivirus F4 strain; experiment: Inactivation of feline caliciviruses (Example 10), plaque assay on CRFK cells; assay type: cell-based

What does the source list for “chlorous acid [Chlorous acid aqueous solution]”?
concentration with disinfecting capability against feline caliciviruses [1]: 400 ppm; ratio of the amount of residual infectious viruses [1]: 0.38 and 0.66; disinfection of polioviruses [2]: disinfection was only observed at pH of 5.5; concentration at which most polioviruses were disinfected ([2]; pH 5.5): 500 ppm; concentration exhibiting a superb sterilizing effect on HSV-I ([3]; pH 4.5-5.5): ≥ 100 ppm; Number of Residual Viruses in Test Solution/Number of Residual Viruses only with Buffer × 100 (%) ([3]; pH 4.5, 10 ppm): 48%; Number of Residual Viruses in Test Solution/Number of Residual Viruses only with Buffer × 100 (%) ([3]; pH 4.5, 50 ppm): 1.3%; Number of Residual Viruses in Test Solution/Number of Residual Viruses only with Buffer × 100 (%) ([3]; pH 4.5, 100 ppm): <0.3%; Number of Residual Viruses in Test Solution/Number of Residual Viruses only with Buffer × 100 (%) ([3]; pH 4.5, 100 ppm, listed as chlorous acid aqueous solution): below the detectable limit; Number of Residual Viruses in Test Solution/Number of Residual Viruses only with Buffer × 100 (%) ([3]; pH 4.5, 150 ppm): <0.2%; Number of Residual Viruses in Test Solution/Number of Residual Viruses only with Buffer × 100 (%) ([3]; pH 4.5, 150 ppm, listed as chlorous acid aqueous solution): below the detectable limit; Number of Residual Viruses in Test Solution/Number of Residual Viruses only with Buffer × 100 (%) ([3]; pH 4.5, 200 ppm): <0.4%; Number of Residual Viruses in Test Solution/Number of Residual Viruses only with Buffer × 100 (%) ([3]; pH 4.5, 200 ppm, listed as chlorous acid aqueous solution): below the detectable limit; Number of Residual Viruses in Test Solution/Number of Residual Viruses only with Buffer × 100 (%) ([3]; pH 5.5, 10 ppm): 100%; Number of Residual Viruses in Test Solution/Number of Residual Viruses only with Buffer × 100 (%) ([3]; pH 5.5, 50 ppm): 12.1%; Number of Residual Viruses in Test Solution/Number of Residual Viruses only with Buffer × 100 (%) ([3]; pH 5.5, 100 ppm): 10.1%; Number of Residual Viruses in Test Solution/Number of Residual Viruses only with Buffer × 100 (%) ([3]; pH 5.5, 150 ppm): <0.2%; Number of Residual Viruses in Test Solution/Number of Residual Viruses only with Buffer × 100 (%) ([3]; pH 5.5, 150 ppm, listed as chlorous acid aqueous solution): below the detectable limit; Number of Residual Viruses in Test Solution/Number of Residual Viruses only with Buffer × 100 (%) ([3]; pH 5.5, 200 ppm): <0.5%; Number of Residual Viruses in Test Solution/Number of Residual Viruses only with Buffer × 100 (%) ([3]; pH 5.5, 200 ppm, listed as chlorous acid aqueous solution): below the detectable limit; Number of Residual Viruses in Test Solution/Number of Residual Viruses only with Buffer × 100 (%) ([3]; pH 6.5, 10 ppm): 100%; Number of Residual Viruses in Test Solution/Number of Residual Viruses only with Buffer × 100 (%) ([3]; pH 6.5, 50 ppm): 63.6%; Number of Residual Viruses in Test Solution/Number of Residual Viruses only with Buffer × 100 (%) ([3]; pH 6.5, 100 ppm): 76.6%; Number of Residual Viruses in Test Solution/Number of Residual Viruses only with Buffer × 100 (%) ([3]; pH 6.5, 150 ppm): 22.2%; Number of Residual Viruses in Test Solution/Number of Residual Viruses only with Buffer × 100 (%) ([3]; pH 6.5, 200 ppm): <0.6%; Number of Residual Viruses in Test Solution/Number of Residual Viruses only with Buffer × 100 (%) ([3]; pH 7.5, 10 ppm): 100%; Number of Residual Viruses in Test Solution/Number of Residual Viruses only with Buffer × 100 (%) ([3]; pH 7.5, 50 ppm): 77.4%; Number of Residual Viruses in Test Solution/Number of Residual Viruses only with Buffer × 100 (%) ([3]; pH 7.5, 100 ppm): 84.7%; Number of Residual Viruses in Test Solution/Number of Residual Viruses only with Buffer × 100 (%) ([3]; pH 7.5, 150 ppm): 55.8%; Number of Residual Viruses in Test Solution/Number of Residual Viruses only with Buffer × 100 (%) ([3]; pH 7.5, 200 ppm): 16.8%; Number of Residual Viruses in Test Solution/Number of Residual Viruses only with Buffer × 100 (%) ([3]; pH 8.5, 10 ppm): 100%; Number of Residual Viruses in Test Solution/Number of Residual Viruses only with Buffer × 100 (%) ([3]; pH 8.5, 50 ppm): 75.3%; Number of Residual Viruses in Test Solution/Number of Residual Viruses only with Buffer × 100 (%) ([3]; pH 8.5, 100 ppm): 98.4%; Number of Residual Viruses in Test Solution/Number of Residual Viruses only with Buffer × 100 (%) ([3]; pH 8.5, 150 ppm): 80%; Number of Residual Viruses in Test Solution/Number of Residual Viruses only with Buffer × 100 (%) ([3]; pH 8.5, 200 ppm): 30%; concentration giving a sufficient effect ([3]; pH of 6.5 or lower (FIG. 2B)): ≥ 200 ppm; concentration giving a sufficient sterilizing effect ([3]; significant at pH of 5.5 or lower (FIG. 2B)): ≥ 50 ppm; contact needed to completely inactivate influenza viruses (influenza viruses; 5 ppm chlorous acid concentration): one minute or less; time after which disinfecting of influenza viruses was almost completed (influenza viruses; 5 ppm upon contact): ~30 s; concentration at which influenza viruses were inactivated to below the detectable limit ([4]; pH 5.5): ≤ 100 ppm; ratio of the amount of residual infectious viruses ([4]; pH 5.5): 0.34; infectious viruses decreased to ([4]; pH 6.5): about 1%; ratio of the amount of residual infectious viruses ([4]; pH 6.5): 0.63; concentration at which viruses were inactivated to about the detectable limit ([4]; pH 7.5): 200 ppm; ratio of the amount of residual infectious viruses ([4]; pH 7.5): 1.16; virus disinfection effect on influenza viruses ([4]; pH 7.5): significant virus disinfection effect; effect on influenza viruses ([4]; pH 8.5): there is an effect even at pH of 8.5; ratio of the amount of residual infectious viruses ([4]; pH 8.5): 1.31; active chlorine concentration at which feline caliciviruses were inactivated to below the detectable limit [5]: ≥ 200 ppm; effect of pH on inactivation of feline caliciviruses [5]: hardly any effect due to pH

Which results are given for “sodium chlorite [Sodium chlorite aqueous solution]”?
Number of Residual Viruses in Test Solution/Number of Residual Viruses only with Buffer × 100 (%) ([3]; pH 4.5, 10 ppm): 52%; Number of Residual Viruses in Test Solution/Number of Residual Viruses only with Buffer × 100 (%) ([3]; pH 4.5, 50 ppm): 51.5%; Number of Residual Viruses in Test Solution/Number of Residual Viruses only with Buffer × 100 (%) ([3]; pH 4.5, 100 ppm): 27.6%; Number of Residual Viruses in Test Solution/Number of Residual Viruses only with Buffer × 100 (%) ([3]; pH 4.5, 150 ppm): 34.4%; Number of Residual Viruses in Test Solution/Number of Residual Viruses only with Buffer × 100 (%) ([3]; pH 4.5, 200 ppm): <0.4%; Number of Residual Viruses in Test Solution/Number of Residual Viruses only with Buffer × 100 (%) ([3]; pH 5.5, 10 ppm): 100%; Number of Residual Viruses in Test Solution/Number of Residual Viruses only with Buffer × 100 (%) ([3]; pH 5.5, 50 ppm): 87.3%; Number of Residual Viruses in Test Solution/Number of Residual Viruses only with Buffer × 100 (%) ([3]; pH 5.5, 100 ppm): 93.2%; Number of Residual Viruses in Test Solution/Number of Residual Viruses only with Buffer × 100 (%) ([3]; pH 5.5, 150 ppm): 100%; Number of Residual Viruses in Test Solution/Number of Residual Viruses only with Buffer × 100 (%) ([3]; pH 5.5, 200 ppm): 8.1%; Number of Residual Viruses in Test Solution/Number of Residual Viruses only with Buffer × 100 (%) ([3]; pH 6.5, 10 ppm): 100%; Number of Residual Viruses in Test Solution/Number of Residual Viruses only with Buffer × 100 (%) ([3]; pH 6.5, 50 ppm): 83.6%; Number of Residual Viruses in Test Solution/Number of Residual Viruses only with Buffer × 100 (%) ([3]; pH 6.5, 100 ppm): 87.9%; Number of Residual Viruses in Test Solution/Number of Residual Viruses only with Buffer × 100 (%) ([3]; pH 6.5, 150 ppm): 100%; Number of Residual Viruses in Test Solution/Number of Residual Viruses only with Buffer × 100 (%) ([3]; pH 6.5, 200 ppm): 15.3%; Number of Residual Viruses in Test Solution/Number of Residual Viruses only with Buffer × 100 (%) ([3]; pH 7.5, 10 ppm): 100%; Number of Residual Viruses in Test Solution/Number of Residual Viruses only with Buffer × 100 (%) ([3]; pH 7.5, 50 ppm): 90.4%; Number of Residual Viruses in Test Solution/Number of Residual Viruses only with Buffer × 100 (%) ([3]; pH 7.5, 100 ppm): 100%; Number of Residual Viruses in Test Solution/Number of Residual Viruses only with Buffer × 100 (%) ([3]; pH 7.5, 150 ppm): 100%; Number of Residual Viruses in Test Solution/Number of Residual Viruses only with Buffer × 100 (%) ([3]; pH 7.5, 200 ppm): 10.4%; Number of Residual Viruses in Test Solution/Number of Residual Viruses only with Buffer × 100 (%) ([3]; pH 8.5, 10 ppm): 100%; Number of Residual Viruses in Test Solution/Number of Residual Viruses only with Buffer × 100 (%) ([3]; pH 8.5, 50 ppm): 91.1%; Number of Residual Viruses in Test Solution/Number of Residual Viruses only with Buffer × 100 (%) ([3]; pH 8.5, 100 ppm): 78.2%; Number of Residual Viruses in Test Solution/Number of Residual Viruses only with Buffer × 100 (%) ([3]; pH 8.5, 150 ppm): 94%; Number of Residual Viruses in Test Solution/Number of Residual Viruses only with Buffer × 100 (%) ([3]; pH 8.5, 200 ppm): 7.6%; ratio of the amount of residual infectious viruses ([4]; pH 5.5): 1.07; residual relative infectivity ([4]; pH 5.5): 1/10; ratio of the amount of residual infectious viruses ([4]; pH 6.5): 1.19; ratio of the amount of residual infectious viruses ([4]; pH 7.5): 1.09; ratio of the amount of residual infectious viruses ([4]; pH 8.5): 1.07

With [Na+].[O-]Cl [(4) sodium hypochlorite aqueous solution] as the compound, how does the “Number of Residual Viruses in Test Solution/Number of Residual Viruses only with Buffer × 100 (%)” value ([3]; pH 4.5, 200 ppm) read?
The value was “below the detectable limit”.
